According to ChEMBL document CHEMBL1159172, “Modelisation, Synthesis and Anti-HIV activities of N,N,N,N,N-pentakistetraazamacrocycles salts derivatives” (Bioorg Med Chem Lett, 1997):

Experiments:
[1] = tested on: MT4; test: The compound was tested for its cytotoxic activity against HIV-1 replication in MT-4 cells, (50% cytotoxic concentration).; type: functional, Homo sapiens; design: unit not given here
[2] = Selectivity index of EC50 and CC50; type: functional
[3] = tested on: MT4; test: The compound was tested for its inhibitory activity against HIV-1 replication in MT-4 cells(50% antiviral effective concentration); IA: inactive.; type: functional, cell-based, Homo sapiens

Row | Compound | CC50 [1] | SI [2] | EC50 [3]
1 | [Cl-].c1ccc(CNCCCCCN2CCCN(CCCCCNCc3ccccc3)CC[N+](CCCCCNCc3ccccc3)(CCCCCNCc3ccccc3)CCCN(CCCCCNCc3ccccc3)CC2)cc1 | 5 | 50 | –
2 | C1CNCCNCCCN(CCCN2CCCNCCNCCCNCC2)CCNC1 | >100 | > 100 | –
3 | CC(C)(C)OC(=O)N(CCCCCN1CCCN(CCCCCN(Cc2ccccc2)C(=O)OC(C)(C)C)CCCN(CCCCCN(Cc2ccccc2)C(=O)OC(C)(C)C)CCN(CCCCCN(Cc2ccccc2)C(=O)OC(C)(C)C)CCC1)Cc1ccccc1 | >50 | > 5 | –
4 | c1ccc(CNCCCCCN2CCCN(CCCCCNCc3ccccc3)CCN(CCCCCNCc3ccccc3)CCCN(CCCCCNCc3ccccc3)CC2)cc1 | 10 | 10 | –
5 | [Cl-].c1ccc(CNCCCCCN2CCCN(CCCCCNCc3ccccc3)CCN(CCCCCNCc3ccccc3)CCC[N+](CCCCCNCc3ccccc3)(CCCCCNCc3ccccc3)CCC2)cc1 | 10 | – | Not Active
6 | CC(C)(C)OC(=O)N(CCCCCN1CCCN(CCCCCN(Cc2ccccc2)C(=O)OC(C)(C)C)CCN(CCCCCN(Cc2ccccc2)C(=O)OC(C)(C)C)CCC[N+](CCCCCN(Cc2ccccc2)C(=O)OC(C)(C)C)(CCCCCN(Cc2ccccc2)C(=O)OC(C)(C)C)CCC1)Cc1ccccc1.Cc1ccc(S(=O)(=O)[O-])cc1 | 10 | – | Not Active
7 | CC(C)(C)OC(=O)N(CCCCCN1CCCN(CCCCCN(Cc2ccccc2)C(=O)OC(C)(C)C)CC[N+](CCCCCN(Cc2ccccc2)C(=O)OC(C)(C)C)(CCCCCN(Cc2ccccc2)C(=O)OC(C)(C)C)CCCN(CCCCCN(Cc2ccccc2)C(=O)OC(C)(C)C)CC1)Cc1ccccc1.Cc1ccc(S(=O)(=O)[O-])cc1 | 50 | 10 | –
8 | CC(C)(C)OC(=O)N(CCCCCN1CCCN(CCCCCN(Cc2ccccc2)C(=O)OC(C)(C)C)CCN(CCCCCN(Cc2ccccc2)C(=O)OC(C)(C)C)CCCN(CCCCCN(Cc2ccccc2)C(=O)OC(C)(C)C)CC1)Cc1ccccc1 | >10 | > 10 | –
9 | c1ccc(CNCCCCCN2CCCN(CCCCCNCc3ccccc3)CCCN(CCCCCNCc3ccccc3)CCN(CCCCCNCc3ccccc3)CCC2)cc1 | 1 | – | –
